Legend:
[1] = cited from earlier work
[2] = system: Acne Vulgaris inflammatory lesion
Description: (§1) An Acne Vulgaris (FIGS. 1a, 1b and 1c) inflammatory lesion on the right cheek of a subject was treated by AIF trihydrate at 0.5% concentration dissolved in water only. The subject applied each 3-4 h the solution as a spray. Pictures were performed in a room with artificial constant light by a Sony Mavica FD95 digital camera at a resolution of 1600×1200 pixels.
(§2) Area of inflammation was measured by image analysis techniques as follows:
(§3) Pictures (FIGS. 1a, 1b and 1c) were saved as a BMP file and loaded into Scion Imaging software v. 4.02 (NIH, USA). All three pictures were concomitantly analyzed on the same frame. First, pictures in gray scale were smoothed, manually thresholded, turned into a binary picture and the results transformed to an outline filter. The area of each outlined papule was measured by the software (n=3) and data was further plotted and statistically analyzed by student's t-test in FIG. 2 (Sigmaplot, Jandel, Java).

[3] = system: Folliculitis inflammatory lesion
Description: as §1, with “A Folliculitis” for “An Acne Vulgaris”, “3a, 3b” for “1a, 1b”, “3c)” for “1c)”, “left posterior thigh […]” for “right cheek”
as §2
as §3, with “(FIGS. 3a, 3b” for “(FIGS. 1a, 1b”, “and 3c)” for “and 1c)”, “FIG. 4” for “FIG. 2”

[4] = 0.5% in water only, spray each 3-4 h, right cheek, subject, FIGS. 1a-1c
[5] = 0.5% in water only, spray each 3-4 h, left posterior thigh, subject, FIGS. 3a-3c

Row | Compound | incidence of severe side effects ([1]; oral, Strauss J S et al, J Am Acad Dermatol, 2001) | side effect: dryness ([1]; systemic retinoid) | side effect: hair loss ([1]; systemic retinoid) | side effect: liver function disorder ([1]; systemic retinoid) | side effect: musculo-skeletal pains ([1]; systemic retinoid) | side effect: photosensitivity ([1]; systemic retinoid) | final resolution of the papule, time [2, 4] | rapid fading of the papule, time from start of treatment [2, 4] | heals the inflamed papule within (area of lesion, image analysis) ([2]; FIG. 2, n=3 area measurements, p<0.01 at 14 h and at 26 h) | final resolution of the papule, time [3, 5] | rapid fading of the papule, time from start of treatment [3, 5] | heals the inflamed papule within (area of lesion, image analysis) ([3]; FIG. 4, n=3 area measurements, p<0.01 at 10 h and p<0.001 at 18 h)
1 | CC1=C(/C=C/C(C)=C/C=C/C(C)=C\C(=O)O)C(C)(C)CCC1 [isotretinoin] | 35% | 100% | 30% | 5% | 15% | 90% | – | – | – | – | – | –
2 | Aluminum fluoride [AIF trihydrate] | – | – | – | – | – | – | 26 h | 14 h | about 24 h | 18 h | 10 h | about 18 h
